Data on three compounds can be found in paper PMC6364133, “Selectivity of Dietary Phenolics for Inhibition of Human Monoamine Oxidases A and B” (BioMed Research International, 2019).

For orientation: IC50 means the concentration that inhibits the measured activity by half. One may read the Ki as a measure of affinity in units of concentration, obtained from inhibition or displacement.

For data set [1] the following is noted: rats, 56 or 168 mg/kg/day by gavage for 14 continuous days; cited from earlier work.
For data set [2] the following is noted: human, 125mg twice daily orally for 6-8 weeks; cited from earlier work.
In data set [3] the target is T1, MAO-B (Homo sapiens, UniProt P27338).
T1 construct: purchased BD Biosciences (San Jose, CA) or Corning Discovery Labware (Woburn, MA)
T1 sequence (P27338 1-520): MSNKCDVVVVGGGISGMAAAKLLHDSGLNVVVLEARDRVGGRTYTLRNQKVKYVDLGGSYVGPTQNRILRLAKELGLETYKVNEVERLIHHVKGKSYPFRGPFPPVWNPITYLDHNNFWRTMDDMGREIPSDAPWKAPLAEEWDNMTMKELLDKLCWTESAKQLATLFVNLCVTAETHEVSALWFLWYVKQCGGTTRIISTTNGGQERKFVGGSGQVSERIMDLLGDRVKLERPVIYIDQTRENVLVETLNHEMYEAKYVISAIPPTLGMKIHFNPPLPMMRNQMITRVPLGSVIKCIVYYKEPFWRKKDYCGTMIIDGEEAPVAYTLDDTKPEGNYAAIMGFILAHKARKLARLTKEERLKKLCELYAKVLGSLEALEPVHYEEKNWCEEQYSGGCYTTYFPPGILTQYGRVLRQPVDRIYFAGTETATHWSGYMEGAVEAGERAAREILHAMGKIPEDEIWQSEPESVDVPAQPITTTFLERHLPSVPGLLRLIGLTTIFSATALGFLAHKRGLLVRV
In words: MAO-B inhibition, kynuramine to 4-hydroxyquinoline, HPLC-fluorescence. It counts as biochemical.

Data set [4] deals with T2, MAO-A (Homo sapiens, UniProt P21397).
T2 construct: purchased BD Biosciences (San Jose, CA) or Corning Discovery Labware (Woburn, MA)
T2 sequence (P21397 1-527): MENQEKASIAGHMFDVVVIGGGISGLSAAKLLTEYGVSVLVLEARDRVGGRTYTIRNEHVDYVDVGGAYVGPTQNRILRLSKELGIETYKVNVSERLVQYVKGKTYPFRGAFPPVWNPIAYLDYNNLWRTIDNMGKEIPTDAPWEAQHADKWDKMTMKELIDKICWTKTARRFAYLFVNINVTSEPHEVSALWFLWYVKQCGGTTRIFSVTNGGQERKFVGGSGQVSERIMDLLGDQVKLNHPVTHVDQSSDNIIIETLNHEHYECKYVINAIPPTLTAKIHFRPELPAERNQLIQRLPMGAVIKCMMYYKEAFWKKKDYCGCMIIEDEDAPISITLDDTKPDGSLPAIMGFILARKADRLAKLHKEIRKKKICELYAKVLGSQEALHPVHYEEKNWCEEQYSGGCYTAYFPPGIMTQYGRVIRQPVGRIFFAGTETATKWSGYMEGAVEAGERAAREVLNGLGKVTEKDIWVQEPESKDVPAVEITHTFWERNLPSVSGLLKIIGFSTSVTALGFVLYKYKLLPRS
The experiment in a line: MAO-A inhibition, kynuramine to 4-hydroxyquinoline, HPLC-fluorescence. It counts as biochemical.

Data set [5] concerns the target T1, MAO-B. The experiment in a line: Inhibition mechanism studies (competition, time dependence) with MAO-B. It is filed as biochemical.
In data set [6] the target is T2, MAO-A. As to conditions: competitive; cited from earlier work.
The target in data set [7] is T1, MAO-B. As to conditions: competitive; cited from earlier work.
Data set [8] relates to MAO-A. As to conditions: cited from earlier work.
The next data set deals with MAO-A in rat brain. As to conditions: cited from earlier work.
The conditions of data set [9]: cited from earlier work.
Data set [10] relates to MAO-B. As to conditions: up to 10μM; cited from earlier work.
Setting [11] is: highest expected luminal concentration: curcumin 140, guaiacol 435, isoeugenol 110, pterostilbene 270, resveratrol 94, zingerone 51 µM, p < 0.05 vs control.
The mark [12] stands for this setting: kynuramine 10 µM, MAO-A 0.01 mg/mL, 15 min.

Entries after “also recorded” stand apart in the source; their conditions may differ. Where two headings read alike, the source gives them in different places.

In the case of `COc1cc(/C=C/c2ccc(O)cc2)cc(OC)c1` [pterostilbene], the oral bioavailability in data set [1] is 80%. In addition, in data set [2], the plasma low-density lipoproteins result is “slightly raised”; the “systolic and diastolic blood pressure” value is given as “reduces”. At MAO-B [3] (setting [11]), the “inhibition of MAO-B activity in screening” value was “significantly inhibited”. This compound also displayed an IC50 on MAO-B [3] (kynuramine 10 µM, MAO-B 0.01 mg/mL, 15 min) of 0.138 ± 0.013 µM. Besides, at MAO-A [4] (setting [11]), the “inhibition of MAO-A activity in screening” value was “significantly inhibited”. In addition, at MAO-A [4] (setting [12]), the 50% inhibitory concentration (IC50) was 13.4 ± 1.5 µM and the “MAO-A Hill coefficient” value is given as 1.7 ± 0.3. For the same compound, the “Selectivity Index” value at MAO-A [4] (ratio of MAO-B IC50/MAO-A IC50) came out at 0.0103. For the same compound, the “mechanism of MAO-B inhibition” value at MAO-B [5] is “competitive time-independent; also recorded: competitive, time-independent”. In addition, the “time profile of MAO-B activity on preincubation” value at MAO-B [5] (0.7 μM, preincubation 0-60 min) is on record as “not significantly different from the control”. Besides, at MAO-B [5] (pterostilbene 0.45 μM, kynuramine 2-450 μM), the “Vmax of kynuramine with MAO-B in presence of inhibitor” value worked out at 3.28 ± 0.19 nmol/min/mg protein.

As to `C=CCc1ccc(O)c(OC)c1` [eugenol], the figures for the Ki on MAO-A [6] and on MAO-B [7] were 26 µM and 211 µM, respectively.

For the compound `Oc1ccc(/C=C/c2cc(O)cc(O)c2)cc1` [resveratrol], the MAO-A inhibition result in the data set on MAO-A [8] is listed as “inhibitor of MAO-A”. Besides, in the data set on MAO-A in rat brain, the IC50 was 2 µM and the Ki was 2.5 µM. The plasma protein binding in [9] is recorded as 91%. Further, the MAO-B inhibition result in the data set on MAO-B [10] is recorded as “did not significantly inhibit”. Further, affinity at MAO-B [3] (from IC50 assuming competitive inhibition) was put at a Ki of 10.2 µM.
